Laboratory results reported in the CheMixHub drug solubility set.

Experiment: xn = mol fraction of the nth substance listed, in the solute-free solvent

COC1=CC(=O)CC(C)C12Oc1c(Cl)c(OC)cc(OC)c1C2=O (stereo unspecified) + CC(C)=O + CC(C)O
solubility (g/100 g solution)
Conditions | 283.15 K | 288.15 K | 293.15 K | 298.15 K | 303.15 K | 308.15 K | 313.15 K | 318.15 K | 323.15 K
x2 = 0.1 | 0.176 | 0.236 | 0.261 | 0.31 | 0.375 | 0.463 | 0.602 | 0.688 | 0.843
x2 = 0.2 | 0.338 | 0.422 | 0.511 | 0.55 | 0.668 | 0.817 | 0.967 | 1.11 | 1.3
x2 = 0.3 | 0.587 | 0.663 | 0.787 | 0.871 | 1.04 | 1.22 | 1.41 | 1.64 | 1.96
x2 = 0.4 | 0.84 | 0.915 | 1.06 | 1.23 | 1.44 | 1.7 | 1.94 | 2.17 | 2.51
x2 = 0.5 | 1.23 | 1.4 | 1.5 | 1.62 | 1.85 | 2.16 | 2.51 | 2.8 | 3.19
x2 = 0.6 | 1.56 | 1.76 | 1.94 | 2.08 | 2.34 | 2.72 | 3.08 | 3.41 | 3.89
x2 = 0.7 | 1.81 | 2.09 | 2.35 | 2.55 | 2.87 | 3.3 | 3.65 | 4.05 | 4.58
x2 = 0.8 | 2.16 | 2.39 | 2.72 | 2.95 | 3.38 | 3.76 | 4.19 | 4.67 | 5.21
x2 = 0.9 | 2.56 | 2.71 | 3.08 | 3.33 | 3.78 | 4.3 | 4.68 | 5.15 | 5.53

CC(=O)OC(c1ccccc1)C(Cl)(Cl)Cl (stereo unspecified) + CC(C)O + O
solubility (g/100 g solution)
Conditions | 288.15 K | 293.15 K | 298.15 K | 303.15 K | 308.15 K | 313.15 K | 318.15 K | 323.15 K | 328.15 K
x2 = 0.3 | 0.121 | 0.305 | 0.695 | 1.28 | 1.93 | 2.84 | 3.53 | 4.2 | 4.91
x2 = 0.4 | 0.68 | 1.07 | 1.66 | 2.53 | 3.38 | 4.59 | 5.99 | 7.89 | 10.2
x2 = 0.5 | 1.44 | 1.92 | 2.68 | 3.57 | 4.9 | 6.25 | 8.62 | 11.3 | 15.3
x2 = 0.6 | 2.16 | 2.57 | 3.54 | 4.68 | 6.23 | 7.88 | 10.9 | 14.7 | 19.1
x2 = 0.7 | 2.5 | 3.03 | 4.15 | 5.52 | 7.14 | 9.44 | 12.2 | 16.8 | 21.4
x2 = 0.8 | 2.69 | 3.35 | 4.57 | 6.3 | 7.95 | 10.4 | 13.8 | 18.5 | 23.5
x2 = 0.9 | 2.86 | 3.67 | 5.1 | 6.71 | 8.39 | 10.9 | 14.4 | 19.4 | 25.3

Nc1cncc(Cl)n1 + CC(O)CO + O
solubility (g/100 g solution)
Conditions | 278.15 K | 283.15 K | 288.15 K | 293.15 K | 298.15 K | 303.15 K | 308.15 K | 313.15 K | 318.15 K | 323.15 K
x2 = 0.02564 | – | – | – | – | – | – | – | – | – | 0.0333
x2 = 0.0559 | – | – | – | – | – | – | – | – | – | 0.0456
x2 = 0.09214 | 0.064 | 0.0784 | 0.093 | 0.112 | 0.133 | 0.158 | 0.185 | 0.216 | 0.25 | 0.292
x2 = 0.1364 | 0.0887 | 0.109 | 0.129 | 0.156 | 0.184 | 0.218 | 0.255 | 0.297 | 0.343 | 0.401
x2 = 0.1915 | 0.112 | 0.137 | 0.166 | 0.2 | 0.239 | 0.281 | 0.33 | 0.384 | 0.445 | 0.521
x2 = 0.2621 | 0.135 | 0.168 | 0.206 | 0.251 | 0.298 | 0.351 | 0.413 | 0.48 | 0.555 | 0.649
x2 = 0.3559 | 0.156 | 0.196 | 0.237 | 0.29 | 0.345 | 0.406 | 0.479 | 0.557 | 0.644 | 0.757
x2 = 0.4865 | 0.159 | 0.205 | 0.253 | 0.308 | 0.371 | 0.435 | 0.512 | 0.599 | 0.694 | 0.815
x2 = 0.6806 | 0.159 | 0.201 | 0.247 | 0.307 | 0.365 | 0.431 | 0.508 | 0.593 | 0.688 | 0.814
